Laboratory results: patent US20100168050A1, “COMPOUNDS HAVING ANTIANGIOGENIC ACTIVITY” (MEDESTEA INTERNAZIONALE S.P.A, priority 2004, published 2010)

Assays:
HUVEC = HUVEC apoptosis/necrosis, annexin V and propidium iodide staining; format: cell-based, human; settings: ATP 3 mM
Excerpt: It is possible that the inhibition of the ATP-dependent pathway can induce the shift to another metabolic activity, as the glycolysis. […] The block of the HUVEC proliferation is further evidenced by the absence of cell apoptosis due to the treatment of the cells with the tested compounds, as reported in the FIG. 9 (the results are representative of 5 experiments). Only the treatment with ATP was able to induce about 4.5% PI positive, e.g. necrotic cells.
In the second series of experiments, we studied the differences in the apoptosis induction on human promyelocytic leukemia HL60 cells by ATP and by the inhibitors of the P2X7 receptors. Apoptotic cells and necrotic cells were analyzed by staining the cells with annexin V and propidium iodide (PI) (BD Pharmingen apoptosis kit, San Diego, Calif.). Briefly, an aliquot of 10^5 cells was incubated with annexin V-fluorescein isothiocyanate (FITC) and PI for 15 minutes at room temperature in the dark. The cells were immediately analyzed by FACScalibur (Becton Dickinson, Heidelberg, Germany). The emission/excitation wavelengths were 530/488 nm for annexin V FITC (FL1) and 640 nm/488 nm for PI (FL2). The necrotic cells were annexin V- and PI-positive, whereas apoptotic cells were annexin V-positive and PI-negative. The percentage of cells stained in each quadrant was quantified using the cellQuest software (BD Bioscience, San Josew, Calif.). […]

[1] = test system: Human endothelial Cells (HUVEC); experiment: Proliferation assay, HUVEC counted in Burker chamber; format: cell-based
Protocol: Human endothelial Cells (HUVEC) were isolated from umbilical vein, counted and seeded in a constant number in a 96-well plate. The cells were cultured as described (Jaffe, E. A. (1984) Biology of Endothelial Cells, Martinus Nighoff Publisher, Boston, USA, pp. 1-260), with or without (control) VEGF (50 ng/ml), in the presence of o-ATP (100 μM), and o-ATP+VEGF. After 24 hours cultivation with or without stimulus, the cells were washed and counted with an optical microscope using a Burker chamber. The results are reported in FIG. 1 and represent the mean±SD of 10 experiments.

[2] = test system: human umbilical vein endothelial cells (HUVEC); experiment: HUVEC cell growing number, crystal violet absorbance at 595 nm; format: cell-based
Protocol: HUVEC were isolated from human umbilical cord by collagenase treatment and cultured in 1% gelatine-coated flasks using endotoxin-free Medium 199, containing 20% heat-inactivated fetal bovine serum, 1% bovine retinal-derived growth factor, 90 microg/ml heparin, 100 IU/ml penicillin and 100 microg/ml streptomycin. All experiments were carried out with HUVEc at the passage 1-4.
(§1) We used oATP at the concentration of 500 microM. HUVEC were treated with oATP over night, washed and fixed with glutaraldeide 2% in PBS. The cells were colored with crystal violet 0.1%, washed and dried. The dye solubilization was performed with acetic acid 10% and the absorbance was measured spectrophotometrically at 595 nm, using a microplate reader. The optical density was proportional to the number of cells.
as §1, with “In” for “We used oATP at”, “first series” for “concentration”, “experiments we studied the proliferation of human umbilical vein endothelial cells (HUVEC), obtained as previously described (1). The” for “500 microM.”, “each of the compounds for 36 hours,” for “oATP over night,”

[3] = test system: PBMC transendothelial migration through a HUVEC monolayer; experiment: Transendothelial migration assay, PBMC through HUVEC monolayer; format: cell-based, human
Protocol: VEGF is a prototypic angiogenetic factor which induces endothelial cell proliferation, angiogenesis and capillary permeability. The latter is evidenced by the assay of transendothelial migration. It is known that VEGF increases transendothelial migration. Migration assay was performed using a Transwell double chamber system (5 micrometer polycarbonate membrane). HUVEC (5×10^4 cells/well) were seeded on the filter, in the presence or absence of TNFα (200 U/ml) and oATP 500 microM. Freshly obtained PMBC (peripheral blood mononuclear cells) by means of fycoll from buffy-coat were added in the upper compartment and allowed to migrate over night to the lower chamber which contained RPMI and 10% fetal calf serum. […] Data represent mean±SEM of 7 experiments.

[4] = test system: RMA wild type (wt) murine lymphoma T cell line; experiment: Cell apoptosis assay, annexin V/PI FACS; format: cell-based, mouse
Protocol: RMA wild type (wt) murine lymphoma T cell line (ATCC) was grown in RPMI 1640 supplemented with 10% heat inactivated fetal bovine serum, 100 U/ml penicillin, 100 microg/ml streptomycin.
Apoptosis was evaluated by FACS analysis, after staining with annexin-V FITC-conjugate to show the exposure of phosphatidyl serine on the external side of plasma membranes, and with propidium iodide (PI).
Two thousand RMA wt cells and lymphocytes were treated with or without different concentrations of oATP for 24 and 48 hours. The cells were then washed with PBS with Ca++ and Mg++ and stained.
Ten thousand cell/sample were analysed and the percentage of annexin V/PI positive cells was calculated with FCS-express software (DE NOVO Software).

[5] = test system: lymphocytes from buffy-coat (PMBC), activated or not with PHA; experiment: Cell apoptosis assay, annexin V/PI FACS; format: cell-based; settings: oATP at high concentrations
Protocol: Lymphocytes were obtained from a buffy-coat by a fycoll gradient and depleted from monocytes by adherence. Lymphocytes were activated with Phytohaemoagglutinin A mitogen (PHA). Apoptosis was evaluated by FACS analysis, after staining with annexin-V FITC-conjugate to show the exposure of phosphatidyl serine on the external side of plasma membranes, and with propidium iodide (PI). Two thousand RMA wt cells and lymphocytes were treated with or without different concentrations of oATP for 24 and 48 hours. The cells were then washed with PBS with Ca++ and Mg++ and stained. Ten thousand cell/sample were analysed and the percentage of annexin V/PI positive cells was calculated with FCS-express software (DE NOVO Software).

RMA wt cells = experiment: Cell cycle analysis, PI staining, FACScan; format: cell-based, mouse
Protocol: RMA wt cells were treated with different concentrations of oATP for 24 and 48 hours, then fixed for at least four hours in ice-cold 70% ethanol. Cells were stained with a solution containing NP-40, RNase and PI and cell cycle distribution was detected using FACScan (Becton Dickinson, San Jose, Calif.) and analyzed with FCS-express software.
Cell cycle progression of RMA wt cell line treated with different concentrations of oATP for 24 or 48 hours.

[6] = test system: RMA cells (T-cell lymphoma); experiment: Tumor growth after subcutaneous RMA cell injection in C57BL/6 mice; format: in vivo, mouse
Excerpt: RMA cells were derived from the Rausher leukemia virus-induced mouse T-cell lymphoma RBL-5 of B6 origin and maintained in RPMI 1640 medium, supplemented with fetal bovine serum, 1% penicillin/streptomycin and 1% glutamine (complete medium).
(§2) C57BL/6 female mice weighing about 18-20 g (8 week old) were used. The cells were washed twice with 0.9% NaCl and subcutaneously injected in each mouse in a volume of 100 microliters containing 7×10^4 cells. After 10 days from RMA cell injection, we treated the mice with oATP. Five groups of mice were studied (each of 7 mice): 1) controls, untreated; 2) locally (subcutaneously) (sc) treated with 0.5 mg of oATP; 3) locally (sc) treated with 1 mg oATP; 4) intraperitoneally treated with 1 mg oATP; 5) locally (sc) treated with 1 mg oATP for 3 days only.
(§3) The mice were observed until the 20th day from the tumor inoculation: they were weighed daily and the size of the tumor mass was daily measured.

[7] = Body weight of RMA tumor-bearing mice during treatment; format: in vivo, mouse; settings: during the different oATP treatments (0.5 or 1 mg sc, 1 mg ip)
Protocol: as §2, §3

[8] = test system: TNFalpha receptor 1 (TNFR1) on HUVEC; experiment: Cytofluorometric assay of TNFalpha receptor expression on endothelial cells; format: cell-based, human
Excerpt: In addition, oATP was cytofluorometrically assayed for its ability to modulate the expression of TNFalpha receptors on endothelial cells. As reported in the FIG. 9a, the use of human TNFalpha (100 U/ml) improved the expression of the TNFalpha receptor 1 (TNFR1) on HUVEC. […] However, oATP was able to downregulate the TNFalpha-induced increased expression of TNFR1.

[9] = test system: human promyelocytic leukemia HL60 cells; experiment: HL60 apoptosis/necrosis, annexin V-FITC and PI staining; format: cell-based; settings: oATP 300 microM versus PPADS 50 microM and KN62 10 microM
Protocol: In the second series of experiments, we studied the differences in the apoptosis induction on human promyelocytic leukemia HL60 cells by ATP and by the inhibitors of the P2X7 receptors. Apoptotic cells and necrotic cells were analyzed by staining the cells with annexin V and propidium iodide (PI) (BD Pharmingen apoptosis kit, San Diego, Calif.). Briefly, an aliquot of 10^5 cells was incubated with annexin V-fluorescein isothiocyanate (FITC) and PI for 15 minutes at room temperature in the dark. The cells were immediately analyzed by FACScalibur (Becton Dickinson, Heidelberg, Germany). The emission/excitation wavelengths were 530/488 nm for annexin V FITC (FL1) and 640 nm/488 nm for PI (FL2). The necrotic cells were annexin V- and PI-positive, whereas apoptotic cells were annexin V-positive and PI-negative. The percentage of cells stained in each quadrant was quantified using the cellQuest software (BD Bioscience, San Josew, Calif.). […] FIG. 11 summarizes the effects of the different treatments on the apoptosis/necrosis induction in the HL60 cells.

macrophage cell lines = settings: Murgia et al. 1993; cited from earlier work
[10] = test system: microglia cells expressing P22/P2X7; settings: Ferrari et al. 1997; cited from earlier work
[11] = test system: rat paw inflammation (CFA); settings: WO 02/11737; cited from earlier work
[12] = group 3: locally (sc) 1 mg oATP

Nc1ncnc2c1ncn2[C@@H]1O[C@H](COP(=O)(O)OP(=O)(O)OP(=O)(O)O)[C@@H](O)[C@H]1O [ATP]
PI positive, e.g. necrotic cells (HUVEC): about 4.5%

Nc1ncnc2c1ncn2[C@@H](C=O)O[C@@H](C=O)COP(=O)(O)OP(=O)(O)OP(=O)(O)O [oATP, adenosine-5′-triphosphate-2′,3′-dialdehyde]
effect on HUVEC proliferative capacity compared with vasostatin ([1]; in vitro, HUVEC): higher than that induced by vasostatin
proliferative capacity of HUVEC ([1]; o-ATP 100 μM, 24 hours, even in the presence of a mitogen (VEGF 50 ng/ml)): significant reduction
cell growing number (HUVEC proliferation) ([2]; 36 hours, ATP 3 mM, oATP 300 microM, PPADS 50 microM, KN62 10 microM): maximal reduction
cell growing number (optical density) ([2]; oATP 500 microM over night): significantly reduced
non-stimulated PBMC transendothelial migration ([3]; addition of oATP, no TNFα): inhibited
TNFα-induced transendothelial migration of PBMC ([3]; oATP 500 microM, TNFα 200 U/ml, over night): significantly reduces
percentage of AnnexinV/PI positive cells ([4]; RMA wt, oATP 1 mM, 48 hours): strongly increases
apoptosis of RMA cells ([4]; oATP at high concentrations): able to induce apoptosis
apoptosis of lymphocytes [5]: not of lymphocytes
% G0/G1 (RMA wt cells; oATP 0.1 μM, 24 h): 48%
% G2/M (RMA wt cells; oATP 0.1 μM, 24 h): 19%
% S (RMA wt cells; oATP 0.1 μM, 24 h): 24%
% subG1 (RMA wt cells; oATP 0.1 μM, 24 h): 9%
% G0/G1 (RMA wt cells; oATP 0.1 μM, 48 h): 50%
% G2/M (RMA wt cells; oATP 0.1 μM, 48 h): 22%
% S (RMA wt cells; oATP 0.1 μM, 48 h): 24%
% subG1 (RMA wt cells; oATP 0.1 μM, 48 h): 4%
% G0/G1 (RMA wt cells; oATP 1 μM, 24 h): 38%
% G2/M (RMA wt cells; oATP 1 μM, 24 h): 10%
% S (RMA wt cells; oATP 1 μM, 24 h): 29%
% subG1 (RMA wt cells; oATP 1 μM, 24 h): 23%
% G0/G1 (RMA wt cells; oATP 1 μM, 48 h): 52%
% G2/M (RMA wt cells; oATP 1 μM, 48 h): 26%
% S (RMA wt cells; oATP 1 μM, 48 h): 19%
% subG1 (RMA wt cells; oATP 1 μM, 48 h): 3%
% G0/G1 (RMA wt cells; oATP 20 μM, 48 h): 50%
% G2/M (RMA wt cells; oATP 20 μM, 48 h): 19%
% S (RMA wt cells; oATP 20 μM, 48 h): 23%
% subG1 (RMA wt cells; oATP 20 μM, 48 h): 8%
% G0/G1 (RMA wt cells; oATP 0.1 mM, 24 h): 44%
% G2/M (RMA wt cells; oATP 0.1 mM, 24 h): 5%
% S (RMA wt cells; oATP 0.1 mM, 24 h): 20%
% subG1 (RMA wt cells; oATP 0.1 mM, 24 h): 31%
% G0/G1 (RMA wt cells; oATP 0.1 mM, 48 h): 33%
% G2/M (RMA wt cells; oATP 0.1 mM, 48 h): 20%
% S (RMA wt cells; oATP 0.1 mM, 48 h): 33%
% subG1 (RMA wt cells; oATP 0.1 mM, 48 h): 14%
% G0/G1 (RMA wt cells; oATP 1 mM, 24 h): 16%
% G2/M (RMA wt cells; oATP 1 mM, 24 h): 3%
% S (RMA wt cells; oATP 1 mM, 24 h): 6%
% subG1 (RMA wt cells; oATP 1 mM, 24 h): 75%
% G0/G1 (RMA wt cells; oATP 1 mM, 48 h): 44%
% G2/M (RMA wt cells; oATP 1 mM, 48 h): 7%
% S (RMA wt cells; oATP 1 mM, 48 h): 25%
% subG1 (RMA wt cells; oATP 1 mM, 48 h): 24%
consistency of the tumor mass obtained in 20 days [6, 12]: less solid than the tumor mass obtained in the other groups
tumor growth at 20 days from RMA cell injection [6, 12]: less evident than that observed in the other groups
tumor mass (arbitrary units) ([6]; group 3: locally (sc) 1 mg oATP, three days from the beginning of the treatment (until the 14th day)): did not significantly grow
tumor mass (arbitrary units) ([6]; group 5: locally (sc) 1 mg oATP for 3 days only, three days from the beginning of the treatment): did not significantly grow
tumor growth ([6]; local continuous treatment with 1 mg oATP): significantly slowing the tumor growth
body weights of the mice [7]: No significant differences
TNFalpha-induced increased expression of TNFR1 ([8]; human TNFalpha 100 U/ml plus oATP): downregulate
expression of TNFR1 on HUVEC ([8]; oATP alone): did not modify such expression
cell apoptosis induction on HL60 [9]: at better extent with respect to PPADS and KN62
ATP-induced permeabilization of the plasma membrane (macrophage cell lines): able to block
IL-1β release (dependent on LPS) [10]: selectively inhibited
effect on CFA-induced unilateral rat paw inflammation [11]: anti-inflammatory and analgesic effect
